# Values of other authors as cited in publication PMC3199145 (Future medicinal chemistry, 2011).
# Assays:
# [1] = tested on: Trypanosoma brucei cathepsin B-like protease (TbCatB); details: read-out: IC50 TbCatB
# [2] = tested on: Trypanosoma cruzi; details: drug concentration that completely clears parasite from T. cruzi infected macrophage cells; P Doyle & J Engel. Unpublished Data
# [3] = tested on: Trypanosoma cruzi
structure (smiles),measurement,setting,value
"CN1CCN(C(=O)N[C@@H](Cc2ccccc2)C(=O)N[C@H](/C=C/S(=O)(=O)c2ccccc2)CCc2ccccc2)CC1 [Compound 1, K11777]",IC50,[1],4 µM
same,MTC Trypanosoma cruzi (minimal trypanocidal concentration),[2],8 µM
same,Efficacy in vivo against T. cruzi parasites,[3],effective
CC[C@@H]([C@H](C)O)n1ncn(-c2ccc(N3CCN(c4ccc(OC[C@@H]5CO[C@@](Cn6cncn6)(c6ccc(F)cc6F)C5)cc4)CC3)cc2)c1=O [posaconazole],Cure of mice with acute and chronic Chagas disease,[3]; mice,able to cure mice
C[C@@H](c1nc(-c2ccc(C#N)cc2)cs1)[C@](O)(Cn1cncn1)c1ccc(F)cc1F [Ravuconazole],Efficacy in animal models,[3]; compared with posoconazole,more limited than posoconazole
